Target: 5-aminolevulinate synthase (ALAS) (Mus musculus (Mouse), UniProt P08680)
Assay: ALAS activity
Type: biochemical
Details: not given
Description: ALAS activity was determined according the article, Stojanovski, B. M., Breydo, L., Hunter, G. A., Uversky, V. N, Ferreira G. C. (2014) Biochim. Biophys. Acta 1844, 2145-2154, which is hereby incorporated by reference in its entirety.

5-aminolevulinate synthase (ALAS), sequence (P08680 50-587): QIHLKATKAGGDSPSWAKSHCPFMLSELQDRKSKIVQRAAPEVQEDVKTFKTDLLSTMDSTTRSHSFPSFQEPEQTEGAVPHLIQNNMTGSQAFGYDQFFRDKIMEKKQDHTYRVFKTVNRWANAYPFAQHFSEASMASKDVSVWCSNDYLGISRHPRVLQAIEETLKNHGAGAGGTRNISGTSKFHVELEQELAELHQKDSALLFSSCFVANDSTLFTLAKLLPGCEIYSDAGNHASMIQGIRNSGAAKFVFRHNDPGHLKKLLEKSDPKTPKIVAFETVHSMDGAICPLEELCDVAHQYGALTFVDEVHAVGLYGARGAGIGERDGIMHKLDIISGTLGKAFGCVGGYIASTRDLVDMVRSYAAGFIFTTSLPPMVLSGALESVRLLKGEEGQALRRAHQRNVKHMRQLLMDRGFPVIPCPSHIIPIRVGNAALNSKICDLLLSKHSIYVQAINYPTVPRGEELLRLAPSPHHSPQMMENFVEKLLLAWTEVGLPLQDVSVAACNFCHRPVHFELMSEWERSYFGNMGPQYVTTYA

SMILES	IC50
Cn1cc(C(=O)C2CCCCC2)c2cc(C(=O)NS(=O)(=O)c3ccc(-c4ccc(C(C)(C)C)cc4)cc3)ccc21 [SZ11TA40]	19.3 ± 2.7 µM
CC1(C)CCN(c2ccc(C(=O)NS(=O)(=O)c3ccc(CN(CCSc4ccccc4)Cc4ccc(S(N)(=O)=O)cc4)cc3)cc2)CC1 [SZ10TA2]	43 ± 5.8 µM
Cn1cc(C(=O)C2CCCCC2)c2cc(C(=O)NS(=O)(=O)c3ccc(CN(CCSc4ccccc4)Cc4ccc(S(N)(=O)=O)cc4)cc3)ccc21 [SZ10TA40]	8.6 ± 0.9 µM
O=C(NS(=O)(=O)c1ccc(CNc2cccc([N+](=O)[O-])c2)cc1)c1ccc(CN2C(=O)C(c3ccc(F)cc3F)=C(c3ccc(F)cc3F)C2=O)cc1 [SZ12TA42]	8.6 ± 0.9 µM
COc1cccc(CN(CCSc2ccccc2)Cc2ccc(S(=O)(=O)NC(=O)c3cccc4ccccc34)cc2)c1 [SZ17TA7]	50 ± 6.1 µM
COc1ccc(Cc2ccc(C(=O)NS(=O)(=O)c3ccc(-c4ccc(Oc5ccccc5)cc4)cc3)cc2)c(OC)c1OC [SZ35TA24]	31.4 ± 1.8 µM

System: ALAS
Assay: not given
Details: background, reference [3]; read-out: IC50 of known ALAS inhibitor; cited from earlier work

SMILES	IC50
NC(C(=O)O)C(=O)O [aminomalonate]	7 µM
